System: OVCAR-5 complex spheroids, viability
Assay: Anticancer human tumor OVCAR-5 cell line growth inhibition;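 note: spheroids exposed to agents for seven days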;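 for viability, T/C: 100% = DMSO vehicle control wells viability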
Details: for IC50: curve of first compound; for viability, T/C: stronger effect = lower value
Method in brief: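 Multicellular complex spheroids of tumor cells with human endothelial cells (HUVEC) and mesenchymal stem cells; the LSD1 inhibitor iadademstat was combined with standard-of-care or investigational agents. Top concentration at or near clinical Cmax, half-log dilutions; final DMSO ≤0.25%.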

[1] = second compound 0.1 µM, first compound 0.000316 µM
[2] = second compound 0.1 µM, first compound 0.001 µM
[3] = second compound 0.1 µM, first compound 0.00316 µM
[4] = second compound 0.1 µM, first compound 0.01 µM
[5] = second compound 0.1 µM, first compound 0.0316 µM
[6] = second compound 0.1 µM, first compound 0.1 µM
[7] = second compound 0.316 µM, first compound 0.000316 µM
[8] = second compound 0.316 µM, first compound 0.001 µM
[9] = second compound 0.316 µM, first compound 0.00316 µM
[10] = second compound 0.316 µM, first compound 0.01 µM
[11] = second compound 0.316 µM, first compound 0.0316 µM
[12] = second compound 0.316 µM, first compound 0.1 µM
[13] = second compound 1 µM, first compound 0.000316 µM
[14] = second compound 1 µM, first compound 0.001 µM
[15] = second compound 1 µM, first compound 0.00316 µM
[16] = second compound 1 µM, first compound 0.01 µM
[17] = second compound 1 µM, first compound 0.0316 µM
[18] = second compound 1 µM, first compound 0.1 µM
[19] = second compound 3.16 µM, first compound 0.000316 µM
[20] = second compound 3.16 µM, first compound 0.001 µM
[21] = second compound 3.16 µM, first compound 0.00316 µM
[22] = second compound 3.16 µM, first compound 0.01 µM
[23] = second compound 3.16 µM, first compound 0.0316 µM
[24] = second compound 3.16 µM, first compound 0.1 µM
[25] = second compound 10 µM, first compound 0.000316 µM
[26] = second compound 10 µM, first compound 0.001 µM
[27] = second compound 10 µM, first compound 0.00316 µM
[28] = second compound 10 µM, first compound 0.01 µM
[29] = second compound 10 µM, first compound 0.0316 µM
[30] = second compound 10 µM, first compound 0.1 µM

| SMILES | IC50 (second compound 0.1 µM) [µM] | IC50 (second compound 0.316 µM) [µM] | IC50 (second compound 1 µM) [µM] | IC50 (second compound 3.16 µM) [µM] | IC50 (second compound 10 µM) [µM] | viability, T/C [3] [%] | viability, T/C [4] [%] | viability, T/C [5] [%] | viability, T/C [6] [%] | viability, T/C [9] [%] | viability, T/C [10] [%] | viability, T/C [11] [%] | viability, T/C [12] [%] | viability, T/C [15] [%] | viability, T/C [16] [%] | viability, T/C [17] [%] | viability, T/C [18] [%] | viability, T/C [21] [%] | viability, T/C [22] [%] | viability, T/C [23] [%] | other results |
| --- | --- | --- | --- | --- | --- | --- | --- | --- | --- | --- | --- | --- | --- | --- | --- | --- | --- | --- | --- | --- | --- |
| CC(C)CC(NC(=O)C(Cc1ccccc1)NC(=O)c1cnccn1)B(O)O (stereo not given) + NC1CCC(NC2CC2c2ccccc2)CC1 | 0.00778 | 0.00849 | 0.00789 | 0.00742 | 0.0064 | 84.3 | 39.5 | 16.2 | 6.2 | 87.4 | 42.6 | 16.1 | 5.03 | 85.2 | 39.9 | 15.4 | 5.03 | 78.6 | 39 | 13.6 | viability, T/C [1]: 92%; viability, T/C [2]: 100%; viability, T/C [7]: 97.3%; viability, T/C [8]: 97.9%; viability, T/C [13]: 88.6%; viability, T/C [14]: 98.8%; viability, T/C [19]: 79.8%; viability, T/C [20]: 104%; viability, T/C [24]: 4.87%; viability, T/C [25]: 84.4%; viability, T/C [26]: 82.3%; viability, T/C [27]: 73.4%; viability, T/C [28]: 35.1%; viability, T/C [29]: 10.2%; viability, T/C [30]: 3.83% |
| CC(C)CC(NC(=O)CNC(=O)c1cc(Cl)ccc1Cl)B1OC(=O)CC(CC(=O)O)(C(=O)O)O1 (stereo not given) + NC1CCC(NC2CC2c2ccccc2)CC1 | > 0.1 | > 0.1 | > 0.1 | > 0.1 | > 0.1 | 108 | 91.5 | 89.7 | 71.8 | 113 | 83.6 | 85.2 | 70.8 | 110 | 95.1 | 80.7 | 71.4 | 95.6 | 76.5 | 77.7 | viability, T/C [1]: 96.8%; viability, T/C [2]: 95%; viability, T/C [7]: 97.5%; viability, T/C [8]: 112%; viability, T/C [13]: 103%; viability, T/C [14]: 93.7%; viability, T/C [19]: 101%; viability, T/C [20]: 103%; viability, T/C [24]: 64.6%; viability, T/C [25]: 98.1%; viability, T/C [26]: 79.8%; viability, T/C [27]: 89.1%; viability, T/C [28]: 86.7%; viability, T/C [29]: 76.5%; viability, T/C [30]: 56.6% |
| COc1cc(Nc2ncc3c(n2)-c2ccc(Cl)cc2C(c2c(F)cccc2OC)=NC3)ccc1C(=O)O + NC1CCC(NC2CC2c2ccccc2)CC1 | > 1 | > 1 | 0.999 | > 1 | > 1 | 103 | 99.1 | 83.5 | 61 | 94.5 | 93.2 | 78.4 | 64 | 87.3 | 90.3 | 80.2 | 62.7 | 83.6 | 83.7 | 75.2 | viability, T/C (second compound 0.1 µM, first compound 0.316 µM): 64.1%; viability, T/C (second compound 0.1 µM, first compound 1 µM): 54.6%; viability, T/C (second compound 0.316 µM, first compound 0.316 µM): 57.3%; viability, T/C (second compound 0.316 µM, first compound 1 µM): 56.6%; viability, T/C (second compound 1 µM, first compound 0.316 µM): 59.8%; viability, T/C (second compound 1 µM, first compound 1 µM): 47.4%; viability, T/C [24]: 59.3%; viability, T/C (second compound 3.16 µM, first compound 0.316 µM): 60.7%; viability, T/C (second compound 3.16 µM, first compound 1 µM): 52.5%; viability, T/C [27]: 83.5%; viability, T/C [28]: 78.7%; viability, T/C [29]: 79.7%; viability, T/C [30]: 57.6%; viability, T/C (second compound 10 µM, first compound 0.316 µM): 55.8%; viability, T/C (second compound 10 µM, first compound 1 µM): 45.5% |

Reference: PubChem BioAssay AID1918956 (Molecular Pharmacology Branch, DTP, NCI, 2023)
